{"source": "paper PMC7911516", "about": "“Investigation of the Factors Responsible for the Poor Oral Bioavailability of Acacetin in Rats: Physicochemical and Biopharmaceutical Aspects” (Pharmaceutics, 2021)", "key": {"[1]": {"design": "method as in PMID 28421306", "conditions": "oral, 5 mg/kg in mice; cited from earlier work"}, "[2]": {"assay": "Maximum absorbable dose (MAD) estimation", "design": "species or system rat", "conditions": "oral dose 100 mg/kg, from measured SIF solubility", "description": "The PAMPA permeability values of acacetin seem to lie approximately in the middle of those of verapamil and ranitidine. […]. Rats have been recognized as a good animal model for predicting the GI absorption of drugs, particularly via passive diffusion, in humans. As a GI absorption prediction model, the maximum absorbable dose (MAD) can estimate a theoretical dose of a drug that can be absorbed across rat intestine, using solubility, intestinal volume, residence time, and intestinal permeability. […] Thus, the SIF solubility of acacetin measured in the present study could not represent an actual solubility of acacetin when it is dispersed in the dosing vehicle and subsequently administered into the GI fluids, which could result in the under-estimation of MAD. Alternatively, an in silico estimate of acacetin solubility in water can be used for the calculation of MAD."}, "[3]": {"assay": "Stability in phosphate buffers, plasma, RLM, SGF and SIF", "format": "physicochemical", "conditions": "for Initially spiked amount remaining after 24 h: 10 μM", "protocol": "The stability of acacetin was determined in several matrices such as phosphate buffers (pH 1.0, 3.0, 5.0, 7.0, 9.0, 11.0, and 13.0), plasma, RLM, SGF, and SIF. The samples spiked with acacetin (10 μM) were incubated at 37 °C, and 120 μL aliquots of the samples were collected at 0, 15, 30, 60, 120, 180, 240, 360, 420, 600, and 1440 min. The collected samples were diluted with acetonitrile to obtain a proper concentration and analyzed by the LC-MS/MS method."}, "Caco-2 cell": {"tested_on": "Caco-2 cell", "design": "method as in PMID 22292790", "conditions": "cited from earlier work"}, "[4]": {"design": "method as in doi:10.5958/0974-360X.2019.00624.3", "conditions": "oral administration at 10 mg/kg; cited from earlier work"}, "[5]": {"assay": "Disappearance in rat plasma and tissue S9 fractions", "format": "in vitro ADME", "conditions": "10 μM, 5 min, S9 0.5 mg/mL, NADPH or UDPGA/alamethicin", "protocol": "The rat gut, spleen, kidney, liver, heart, brain, and lung were excised after cervical dislocation, rinsed with cold saline, blotted dry with tissue paper, and weighed. Each tissue sample was homogenized using a homogenizer (Ultra-Turrax T10 basi; IKA-Werke GmbH & Co. KG, Staufen, Germany) in cold 0.25 M sucrose solution. The homogenate was centrifuged at 9000× g for 30 min, and the supernatant fraction was stored at −80 °C until further use. The reaction mixture consisted of substrate, plasma, or tissue S9 fractions (protein concentration: 0.5 mg/mL) and NADPH (1 mM) or UDPGA (2 mM) in Tris buffer (100 mM; pH 7.4). After preincubation at 37 °C for 5 min, acacetin (final concentration: 10 μM) was added to initiate the enzyme reaction. After 5 min of incubation with shaking at 37 °C, the reaction was terminated by mixing the reaction mixture with acetonitrile containing IS (volume four times that of the reaction mixture). After vortex-mixing and centrifugation at 16,000× g for 10 min, 100 μL of the supernatant was obtained and stored at −80 °C until further LC-MS/MS assay."}, "[6]": {"assay": "Parallel artificial membrane permeability assay (PAMPA)", "format": "in vitro ADME", "conditions": "GIT PAMPA Double Sink", "protocol": "Simulated intestinal fluid (SIF) was prepared by dissolving 3 mM sodium taurocholate and 0.1% (w/v) pancreatin in phosphate buffer (final pH = 7.0). The solubility of acacetin was measured by adding excessive amounts of acacetin into glass vials containing 1.5 mL of water, pH 7.4 phosphate buffer, SGF, and SIF. […] The samples were centrifuged at 16,000× g for 5 min, and the supernatant was passed through a 0.20-μm syringe filter to remove excess acacetin. Further, the concentration of acacetin in the filtrate was determined using the LC-MS/MS method. […] Finally, the acacetin concentrations in the octanol and water layers were determined using the LC-MS/MS method. […] The PAMPA was conducted using a commercially available PAMPA kit (GIT PAMPA Double Sink; pION Inc., Massachusetts, MA, USA) according to the manufacturer's protocol. The permeability was calculated using pION PAMPA Explorer ver. 3.8 software (pION Inc., Massachusetts, MA, USA)."}, "[7]": {"assay": "Distribution coefficients in octanol–water system", "format": "physicochemical", "conditions": "25 °C", "protocol": "Simulated gastric fluid (SGF) consisted of 0.2% (w/v) sodium chloride, 0.32% (w/v) pepsin, and 0.7% (v/v) HCl (final pH = 1.2). Simulated intestinal fluid (SIF) was prepared by dissolving 3 mM sodium taurocholate and 0.1% (w/v) pancreatin in phosphate buffer (final pH = 7.0). The solubility of acacetin was measured by adding excessive amounts of acacetin into glass vials containing 1.5 mL of water, pH 7.4 phosphate buffer, SGF, and SIF. The mixtures were allowed to reach equilibrium in a shaking incubator (FINEPCR, Gyeonggi-do, South Korea) at 500 rpm at 37 °C for 48 h. The samples were centrifuged at 16,000× g for 5 min, and the supernatant was passed through a 0.20-μm syringe filter to remove excess acacetin. Further, the concentration of acacetin in the filtrate was determined using the LC-MS/MS method. The distribution coefficients of acacetin in water (log P) and pH 7.4 phosphate buffer (log D7.4) were determined using an octanol–water system at 25 ± 0.5 °C. […] Finally, the acacetin concentrations in the octanol and water layers were determined using the LC-MS/MS method. The membrane permeability of acacetin and reference compounds (verapamil as a reference for high permeability and ranitidine as a reference for low permeability) was assessed by parallel artificial membrane permeability assay (PAMPA). […] The permeability was calculated using pION PAMPA Explorer ver. […]"}, "[8]": {"design": "method as in PMID 25456423", "conditions": "oral, 1.4–1.676 mg/kg in rats; cited from earlier work"}}, "note": "Where two headings read alike, the source gives them in different places.", "data": [{"smiles": "COc1ccc(-c2cc(=O)c3c(O)cc(O)cc3o2)cc1", "note": "[acacetin, Acacetin]", "values": [{"measurement": "Cmax", "setting": "[1]", "value": 0.017, "unit": "µg/mL"}, {"measurement": "F", "setting": "[1]", "value": 1.30, "unit": "%"}, {"measurement": "MAD as portion of the orally administered dose", "setting": "[2]", "value": 0.00361, "unit": "%"}, {"measurement": "Stability (stable = more than 85% remaining)", "setting": "[3]; SGF and SIF", "value": "unstable"}, {"measurement": "Initially spiked amount remaining after 24 h", "setting": "[3]; SGF and SIF, 37 °C", "value": "27.5–62.0%"}, {"measurement": "Stability (stable = more than 85% remaining)", "setting": "[3]; acidic and neutral conditions (pH 1–7)", "value": "unstable"}, {"measurement": "Stability (stable = more than 85% remaining)", "setting": "[3]; basic conditions (pH 9, 11, 13)", "value": "stable"}, {"measurement": "Remaining after 24 h", "setting": "[3]; pH 7 phosphate buffer and simulated GI fluids (as worded in abstract)", "value": "27.5–62.0%"}, {"measurement": "Initially spiked amount remaining after 24 h", "setting": "[3]; phosphate buffers, pH range 1–7, 37 °C", "value": "16.1–35.9%"}, {"measurement": "Stability (stable = more than 85% remaining)", "setting": "[3]; plasma and RLM, absence of NADPH and UDPGA/alamethicin", "value": "stable"}, {"measurement": "Caco-2 cell permeability", "setting": "Caco-2 cell", "value": "2.81 × 10^–6 cm/s"}, {"measurement": "Cmax", "setting": "[4]", "value": 1.668, "unit": "µg/mL"}, {"measurement": "bioavailability", "setting": "[4]", "value": 84, "unit": "%"}, {"measurement": "Tissue-dependent metabolizing activity (disappearance rate)", "setting": "[5]", "value": "the liver exhibited significantly higher metabolizing activity than all the tested tissues"}, {"measurement": "Papp", "setting": "[6]", "value": "80.6 ± 9.1", "unit": "nm/s"}, {"measurement": "logD", "setting": "[7]; n-octanol/pH 7.4 phosphate buffer, pH 7.4, n-octanol/pH 7.4 phosphate buffer, read-out: Log D7.4", "value": "> 3"}, {"measurement": "logP", "setting": "[7]; octanol/water, n-octanol/water", "value": "> 3"}, {"measurement": "Cmax", "setting": "[8]", "value": 0.01902, "unit": "µg/mL"}]}]}
